Drawing on ChEMBL document CHEMBL1125773, “Analogues of oxybutynin. Synthesis and antimuscarinic and bladder activity of some substituted 7-amino-1-hydroxy-5-heptyn-2-ones and related compounds” (1991), this text covers Duration, Potency and Kb for 49 molecules.

Some results are limits rather than exact numbers.

Test [1] is filed under the species Cavia porcellus. The experiment in a line: Duration of action at which functional detrusor muscle contraction strength was measured using guinea pig model of cystometrogram. Details: species or system Muscle tissue.
In test [2] the test system is Cavia porcellus. The experiment in a line: Effect on in vivo functional detrusor muscle contraction strength using guinea pig model of cystometrogram. The arrangement: species or system Muscle tissue.
Test [3] is filed under the species Cavia porcellus. The experiment in a line: Antimuscarinic effect determined by comparing ability to inhibit carbachol-induced guinea pig detrusor muscle contractions. Format: functional.

In test [1], `CN(C)CC#CCCC(=O)C(O)(c1ccccc1)c1ccccc1` came in with a Duration of 45 min. In test [2], this molecule displayed a Potency of 0.59. The Kb in test [3] is given as 70.1 nM.

`CCN(C)CC#CCCC(=O)C(O)(c1ccccc1)C1CC1` (stereo not drawn) had a Duration in test [1] of 127 min. In test [2], the Potency stood at 1.3. In test [3], the Kb is 241 nM.

Take `CCN(CC)CC#CCCC(=O)C(O)(c1ccccc1)C1CC1` (stereo not drawn): in test [1], the Duration was 80 min. Also, the Potency in test [2] was determined as 0.98. The molecule further showed a Kb in test [3] of 58 nM.

In test [3], `CN(C)CC#CCCC(=O)C(O[Si](C)(C)C)(c1ccccc1)C1CCCCC1` (stereo not drawn) gave a Kb of over 5000 nM.

As for `CN(C)CC#CCCC(=O)C(O)(C1CCCCC1)C1CCCCC1`, the Potency in test [2] was 15.3. The molecule further gave a Kb in test [3] of 169 nM.

On to `CN(C)CC#CCCC(=O)C(O)(c1ccccc1)C1CCC1` (stereo in doubt; 14b), for which the Duration in test [1] worked out at 116 min. In addition, the Potency in test [2] is listed as 0.12. Further, the Kb in test [3] amounted to 4.9 nM.

Turning to `CN(C)CC#CCCC(=O)C(O)(c1ccccc1)C1(C)CC1` (stereo not drawn), the Duration in test [1] was 80 min. Moreover, in test [2], the Potency was 0.28. The same molecule came in with a Kb in test [3] of 24 nM.

Regarding `CCCCN(CC#CCCC(=O)C(O)(c1ccccc1)C1CCCCC1)CCC` (stereo not drawn), in test [1], the Duration came to 74 min. The Potency in test [2] worked out at 2.6. Further, the Kb in test [3] was determined as 142 nM.

`CCN(C)CC#CCCC(=O)C(O)(c1ccccc1)c1ccccc1` yielded a Duration in test [1] of 69 min. This molecule displayed a Potency in test [2] of 0.9. The Kb in test [3] is on record as 75.4 nM.

For `CCN(CC)CC#CCCC(=O)C(O)(c1ccccc1)C1CCCC1` (stereo not drawn), the Potency in test [2] was determined as 3.1. The same molecule registered a Kb in test [3] of 21 nM.

In test [1], `CC(C)N(CC#CCCC(=O)C(O)(c1ccccc1)C1CCCCC1)C(C)C` (stereo not drawn) yielded a Duration of 32 min. The same molecule showed a Potency in test [2] of 5.3. Also, the Kb in test [3] was 260 nM.

Regarding `CN(C)CC#CC(CO)C(O)(c1ccccc1)C1CCCCC1` (stereo not drawn), the Potency in test [2] amounted to 7.38. This molecule also returned a Kb in test [3] of 99.7 nM.

For `CCN(CC)CC#CCCC(=O)C(C)(O)c1ccccc1` (stereo not drawn), the Kb in test [3] is 5200 nM.

`CN(C)CC#CCCC(=O)C(O)(c1ccc(F)cc1)C1CCCCC1` (stereo not drawn): the Duration in test [1] was found to be 104 min. The same molecule showed a Potency in test [2] of 0.9. The molecule also showed a Kb in test [3] of 67.7 nM.

In test [3], `CCN(CC)CC#CCCC(=O)C(O)(c1ccccc1)c1ccccc1` displayed a Kb of 70.7 nM.

On to `CN(C)CC#CCCC(=O)C(O)(c1ccccc1)C12C[C@H]3C[C@@H](C1)C[C@@H](C2)C3` (stereo partly drawn), for which the Kb in test [3] was over 5000 nM.

In test [1], `CCNCC#CCCC(=O)C(O)(c1ccccc1)C1CC1` (stereo not drawn) yielded a Duration of 103 min. For the same molecule, in test [2], the Potency was 1.1. The molecule further gave a Kb in test [3] of 224 nM.

Turning to `CC(CC#CCN(C)C)C(=O)C(O)(c1ccccc1)C1CCCCC1` (stereo not drawn), the Duration in test [1] is recorded as 39 min. The molecule also came in with a Potency in test [2] of 2.1. Moreover, the Kb in test [3] amounted to 163 nM.

As for `CN(C)CC#CCCC(=O)C(O)(c1ccccc1)C1CCCCC1` (stereo not drawn), the Duration in test [1] is reported as 126 min. Besides, the Potency in test [2] stood at 0.48. Also, the Kb in test [3] is 38.7 nM.

In test [1], `CCNCC#CCCC(=O)C(O)(c1ccccc1)C1CC2CCC1C2` (stereo not drawn) came in with a Duration of 165 min. This molecule also had a Potency in test [2] of 1.1. The molecule further showed a Kb in test [3] of 65 nM.

Take `CC(C)N(C)CC#CCCC(=O)C(O)(c1ccccc1)C1CCCCC1` (stereo not drawn): the Duration in test [1] was 41 min. This molecule came in with a Potency in test [2] of 4.2. This molecule gave a Kb in test [3] of 267 nM.

Turning to `CCNCC#CCCC(=O)C(O)(c1ccc(F)cc1)C1CCCCC1` (stereo not drawn), in test [1], the Duration was 116 min. The molecule further had a Potency in test [2] of 1.8. The molecule also yielded a Kb in test [3] of 504 nM.

Molecule `CN(C)CC#CCCC(=O)C(O)(c1ccccc1)C1CCC1` (single isomer, unassigned; (+)) came in with a Duration in test [1] of 88 min. In test [2], this molecule gave a Potency of 0.06. This molecule came in with a Kb in test [3] of 6.2 nM.

For the molecule `O=C(CCC#CCNCc1ccccc1)C(O)(c1ccccc1)C1CCCCC1` (stereo not drawn), the Kb in test [3] is 4200 nM.

Turning to `CCCCN(CC#CCCC(=O)C(O)(c1ccccc1)C1CCCCC1)CCCC` (stereo not drawn), in test [3], the Kb is over 5000 nM.

For `CN(C)CC#CCCC(=O)C(O)(c1ccccc1)C12CCC(CC1)CC2` (stereo not drawn), the Potency in test [2] turned out to be 4.4. This molecule yielded a Kb in test [3] of 115 nM.

`CCN(CC#CCCC(=O)C(O)(c1ccccc1)C1CCCCC1)C(C)C` (stereo not drawn) showed a Duration in test [1] of 23 min. The molecule further showed a Potency in test [2] of 3.3. For the same molecule, in test [3], the Kb is reported as 217 nM.

`CCNCC#CCCC(=O)C(O)(c1ccccc1)C1CCCCC1` (stereo not drawn) displayed a Duration in test [1] of 85 min. In test [2], this molecule gave a Potency of 0.98. Besides, the Kb in test [3] is recorded as 232 nM.

For the molecule `CCN(C)CC#CCCC(=O)C(O)(c1ccccc1)C1CCCCC1` (stereo not drawn), in test [1], the Duration was 39 min. In addition, the Potency in test [2] worked out at 0.45. The same molecule showed a Kb in test [3] of 37 nM.

`CN(C)CC#CCCC(=O)C(O)(c1ccccc1)C1CC1` (stereo not drawn): the Duration in test [1] is given as 89 min. In addition, in test [2], the Potency came out at 0.48. This molecule gave a Kb in test [3] of 35 nM.

For the molecule `CN(C)CC#CCCC(=O)C(O)(c1ccccc1)C1CCCC1` (stereo not drawn), the Duration in test [1] is listed as 98 min. Further, the Potency in test [2] worked out at 0.33. This molecule had a Kb in test [3] of 2 nM.

Molecule `CN(C)CC#CCCC(=O)C(O)(c1ccccc1)C1CCC1` (stereo in doubt; (-)-14b) showed a Duration in test [1] of 40 min. In test [2], this molecule displayed a Potency of 2.5. For the same molecule, the Kb in test [3] was 149 nM.

On to `CCNCC#CCCC(=O)C(O)(c1ccccc1)C1CCC1` (stereo not drawn), for which the Duration in test [1] is listed as 103 min. Also, the Potency in test [2] is on record as 1.1. The Kb in test [3] came to 224 nM.

In test [1], `CCNCC#CCCC(=O)C(O)(c1ccccc1)c1ccccc1` showed a Duration of 54 min. Also, the Potency in test [2] is recorded as 1.5. The molecule further gave a Kb in test [3] of 200 nM.

Molecule `CN(C)CCCCCC(=O)C(O)(c1ccccc1)C1CCCCC1` (stereo not drawn) showed a Duration in test [1] of 294 min. This molecule registered a Potency in test [2] of 1.27. The molecule also registered a Kb in test [3] of 43 nM.

The molecule `CN(C)CC#CCCC(=O)C(O)(c1ccccc1)C1CC2CCC1C2` (stereo not drawn) showed a Duration in test [1] of 242 min. This molecule also yielded a Potency in test [2] of 0.9. The molecule also yielded a Kb in test [3] of 90 nM.

Take `CC(C)NCC#CCCC(=O)C(O)(c1ccccc1)C1CCCCC1` (stereo not drawn): the Duration in test [1] is given as 35 min. The molecule further yielded a Potency in test [2] of 2.1. This molecule had a Kb in test [3] of 292 nM.

Take `CN(C)CC#CCCC(=O)[C@@](O)(c1ccccc1)C1CCCCC1`: the Duration in test [1] is recorded as 88 min. In addition, the Potency in test [2] is reported as 3.6. In test [3], this molecule displayed a Kb of 209 nM.

`CC(C)CC(O)(C(=O)CCC#CCN(C)C)c1ccccc1` (stereo not drawn) displayed a Potency in test [2] of 4.1. This molecule also registered a Kb in test [3] of 30.5 nM.

As for `CN(CC#CCCC(=O)C(O)(c1ccccc1)C1CCCCC1)CCc1ccccc1` (stereo not drawn), in test [2], the Potency was over 10. Besides, in test [3], the Kb was found to be 551 nM.

With `CN(C)Cc1ccc(CCC(=O)C(O)(c2ccccc2)C2CCCCC2)cc1` (stereo not drawn), the Kb in test [3] stood at 1900 nM.

The molecule `CCN(C)CC#CCCC(=O)C(O)(c1ccccc1)C1CCC1` (stereo not drawn) gave a Duration in test [1] of 168 min. Further, the Potency in test [2] is on record as 0.86. For the same molecule, in test [3], the Kb was found to be 7.5 nM.

With `CC(C)C(O)(C(=O)CCC#CCN(C)C)c1ccccc1` (stereo not drawn), the Duration in test [1] is reported as 80 min. This molecule yielded a Potency in test [2] of 0.48. The molecule also returned a Kb in test [3] of 18.3 nM.

The molecule `CCN(CC)CC#CCCC(=O)C(O)(c1ccccc1)C1CCCCC1` (stereo not drawn) displayed a Duration in test [1] of 30 min. In test [2], this molecule had a Potency of 2.8. The Kb in test [3] is given as 175 nM.

In test [1], `CNCC#CCCC(=O)C(O)(c1ccccc1)C1CCCCC1` (stereo not drawn) had a Duration of 48 min. For the same molecule, in test [2], the Potency is reported as 0.48. Also, the Kb in test [3] was 71.2 nM.

`CN(C)CC#CCCC(=O)[C@](O)(c1ccccc1)C1CCCCC1` returned a Duration in test [1] of 257 min. Further, the Potency in test [2] was found to be 0.19. This molecule gave a Kb in test [3] of 17 nM.

`CCN(CC)CC#CCCC(O)C(O)(c1ccccc1)C1CCCCC1` (stereo not drawn) had a Duration in test [1] of 123 min. For the same molecule, in test [2], the Potency came out at 6.3. The molecule also displayed a Kb in test [3] of 1600 nM.

`NCC#CCCC(=O)C(O)(c1ccccc1)C1CCCCC1` (stereo not drawn) yielded a Kb in test [3] of 2100 nM.

Consider `CN(CC#CCCC(=O)C(O)(c1ccccc1)C1CCCCC1)CCO` (stereo not drawn), for which the Kb in test [3] worked out at 257 nM.
